pEC50: −log10 of the molar value. Where a name gives a salt, the structure may show the parent alone. Read-outs that look alike come from different tables or passages of the source. Each block holds one compound with its values, some of them ahead of it.
How the values were obtained:
Assay in all cases: CRE-luciferase assay of odorant receptor activation (Dual-Glo, Hana3A cells, RTP1S), dose-response EC50
Type in all cases: cell-based
[1] = molecular target: T1, mouse odorant receptors (ORs) (Mus musculus, UniProt P23275)
T1 construct: OR open reading frames were amplified from genomic DNA; expressed in transfected cells; host or cells: Hana3A cells, co-transfected with RTP1S, CRE-luciferase and pRL-SV40
T1 sequence (P23275 1-312): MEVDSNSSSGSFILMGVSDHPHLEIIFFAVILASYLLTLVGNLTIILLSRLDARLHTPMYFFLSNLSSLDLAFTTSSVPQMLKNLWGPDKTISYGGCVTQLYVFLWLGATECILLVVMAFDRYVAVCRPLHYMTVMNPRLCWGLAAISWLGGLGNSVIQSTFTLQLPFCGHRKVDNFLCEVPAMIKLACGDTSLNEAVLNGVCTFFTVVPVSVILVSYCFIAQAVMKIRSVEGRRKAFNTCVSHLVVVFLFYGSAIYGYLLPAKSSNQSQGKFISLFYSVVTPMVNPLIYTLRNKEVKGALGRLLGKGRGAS
Source text: (§1) Cloning mouse and human ORs. […] OR open reading frames were amplified from genomic DNA using proofreading KOD DNA polymerase (Toyobo/Novagen) and subcloned into pCI expression vectors (Promega) containing the first 20 residues of human rhodopsin (Rho tag). The sequences of the cloned receptors were verified by sequencing (3100 Genetic Analyzer, ABI Biosystems). Immunocytochemistry and FACS analysis. […] For FACS analysis, phycoerythrin (PE)-conjugated anti-mouse IgG (Jackson Immunologicals) was used. In order to monitor the transfection efficiency, Green Fluorescent Protein (GFP) was co-transfected with the OR. The intensity of receptor cell surface expression was calculated as the ratio of PE and GFP expression. 7-aminoactinomycin D (Calbiochem) was added before flow cytometry to mark dead cells which were excluded from the analysis. The gate and mean of PE positive cells was normalized by GFP values. Luciferase assay. […] Odorant receptor activation leads to an increase in intracellular cAMP; CRE-luciferase (Stratagene) was used to measure this change. […] Hana3A cells were plated on poly-D-lysine-coated 96-well plates (BioCoat; Becton Dickinson). […] For each 96-well plate transfected, 1 μg of CRE-Luc, 1 μg of pRL-SV40, 5 μg of odorant receptor plasmid, and 1 μg of RTP1S was used. Approximately 24 hours post transfection, the medium was replaced with CD293 chemically defined medium (Gibco) and the plate was incubed for 30 min at 37° C. The medium was then replaced with 25 μL of odorant solution diluted in CD293 and the plate was incubated for 4 hrs at 37° C. and 5% CO2. The manufacturer's protocols for measuring luciferase and Renilla luciferase activities was followed. […] All luminescence values were divided by the Renilla Luciferase activity to control for transfection efficiency in a given well. Normalized luciferase activity was calculated using the formula (LN−Lmin)/(Lmax−Lmin), where LN is the luminescence of firefly luciferase in response to the odorant, Lmin is the minimum luciferase value on a plate or set of plates, and Lmax is the maximum luciferase value on a plate or set of plates. The data was analyzed using Microsoft Excel and GraphPad Prism 4. Screening procedure. The entire OR library was stimulated with eight separate odorant mixtures formed from 93 odorants (FIG. 12). […] A comparison between the 93 individual odorants at a 100 μM dose and a no-odor control was performed for all 290 […]. Each comparison was performed in triplicate; statistical significance was assessed by t-test (uncorrected for multiple comparisons). […] A single odorant was used on each plate to avoid cross-contamination, and each OR odorant dose was tested at least three times. The data was fit to a sigmoidal curve. […] Physicochemical descriptors. […] Receptor descriptors. […] Correlations between descriptors and responses. […] All odorants for which there were fewer than 3 responsive receptors were eliminated. For all remaining odorant pairs the Pearson correlation between EC50 vectors and the Euclidean distance between descriptor vectors was calculated. The Pearson correlation between these two sets of distances was then measured. Optimizing descriptors. […] In this method one begins with an empty set of descriptors. Each descriptor is combined with the previous set of descriptors and correlation values are computed for all of these candidate sets of descriptors. To reduce overfitting, the data is randomly divided into ten subsets and correlation values are computed for each leave-one out subset. The final correlation coefficient for each set of descriptors is the average of the correlation coefficients for each subset. The set with the best correlation coefficient then becomes the new set of descriptors and the process is repeated until the correlation coefficient increases by less than 0.004 in three consecutive iterations.

[2] = system: mouse odorant receptors (ORs); settings: for log EC50, MOR203-1 / log EC50 (Table 4 value), MOR203-1: receptor MOR203-1; for log EC50, MOR271-1 / log EC50 (Table 4 value), MOR271-1: receptor MOR271-1
Source text: as §1

[3] = molecular target: T2, human odorant receptors (ORs) (Homo sapiens, UniProt Q9P1Q5); settings: for EC50: receptor OR1A1
T2 construct: OR open reading frames were amplified from genomic DNA; expressed in transfected cells; host or cells: Hana3A cells, co-transfected with RTP1S, CRE-luciferase and pRL-SV40
T2 sequence (Q9P1Q5 1-309): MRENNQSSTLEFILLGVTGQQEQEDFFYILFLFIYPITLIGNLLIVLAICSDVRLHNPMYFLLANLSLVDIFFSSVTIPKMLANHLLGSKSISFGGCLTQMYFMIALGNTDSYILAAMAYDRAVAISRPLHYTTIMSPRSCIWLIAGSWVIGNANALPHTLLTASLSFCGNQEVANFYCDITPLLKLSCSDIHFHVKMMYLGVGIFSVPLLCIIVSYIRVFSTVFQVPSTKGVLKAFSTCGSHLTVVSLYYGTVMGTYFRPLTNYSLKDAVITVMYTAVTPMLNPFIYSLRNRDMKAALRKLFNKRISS
Source text: as §1, with “For all remaining odorant pairs the Pearson correlation between EC50 vectors and the Euclidean distance between descriptor vectors was calculated.” left out, “subset.” for “subset. The set with the best correlation coefficient then becomes the new set of descriptors and the process is repeated until the correlation coefficient increases by less than 0.004 in three consecutive iterations.”
(§2) The entire OR library was stimulated with one of 8 odorant mixtures drawn from 93 odorants chosen to represent diverse functional groups, sizes, and structures (Table 3). Each mixture was applied at five different concentrations. […] The 93 odorants were then applied individually at 100 μM to the 290 mixture-responsive ORs.

[4] = molecular target: T3, human odorant receptors (ORs) (Homo sapiens, UniProt Q9Y3N9); settings: for EC50 / log EC50 (Table 4 value), OR2W1: receptor OR2W1
T3 construct: OR open reading frames were amplified from genomic DNA; expressed in transfected cells; host or cells: Hana3A cells, co-transfected with RTP1S, CRE-luciferase and pRL-SV40
T3 sequence (Q9Y3N9 1-320): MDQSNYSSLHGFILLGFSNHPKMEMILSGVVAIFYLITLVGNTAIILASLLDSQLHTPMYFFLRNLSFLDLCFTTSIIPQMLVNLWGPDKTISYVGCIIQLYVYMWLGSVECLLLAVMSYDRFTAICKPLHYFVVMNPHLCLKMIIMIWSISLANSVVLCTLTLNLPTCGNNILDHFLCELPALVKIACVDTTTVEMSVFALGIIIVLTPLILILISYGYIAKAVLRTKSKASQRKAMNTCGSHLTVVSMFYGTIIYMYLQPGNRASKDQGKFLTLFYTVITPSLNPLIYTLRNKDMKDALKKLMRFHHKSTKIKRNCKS
Source text: as §1, with “For all remaining odorant pairs the Pearson correlation between EC50 vectors and the Euclidean distance between descriptor vectors was calculated.” left out, “subset.” for “subset. The set with the best correlation coefficient then becomes the new set of descriptors and the process is repeated until the correlation coefficient increases by less than 0.004 in three consecutive iterations.”
as §2

[5] = receptor MOR272-1, 0 = no response
[6] = 0 = no response, read-out: log EC50, OR1A1 (converted)
[7] = 0 = no response, read-out: log EC50, OR2W1 (converted)
[8] = read-out: log EC50 (Table 4 value), OR1A1 (converted)
[9] = read-out: log EC50 (Table 4 value), OR2W1 (converted)
[10] = read-out: log EC50 of odorant at OR2W1 (0 = no response) (converted)

- log EC50, MOR256-17 ([1]; receptor MOR256-17, 0 = no response): −4.575
- log EC50, MOR1-1 ([2]; receptor MOR1-1, 0 = no response): −4.138
- log EC50, MOR41-1 ([2]; receptor MOR41-1, 0 = no response): −3.96
- log EC50, MOR139-1 ([2]; receptor MOR139-1, 0 = no response): −3.585
- log EC50, MOR258-1 ([2]; receptor MOR258-1, 0 = no response): −4.268
- log EC50, MOR259-1 ([2]; receptor MOR259-1, 0 = no response): −3.63
SMILES: O=C1Cc2ccccc2O1 [2-Counpronon ?]

- log EC50, MOR203-1 ([2]; 0 = no response): −4.76
- log EC50, MOR271-1 ([2]; 0 = no response): −4.581
- log EC50, MOR272-1 [2, 5]: −5.073
- EC50 [3, 6]: 39.9 µM
- EC50 [4, 7]: 7.21 µM
SMILES: CCCCCC(C)=O [2-Haptonone]

SMILES: CCCCC(C)=O [2-Hexanone]
- log EC50, MOR271-1 ([2]; 0 = no response): −4.936
- log EC50, MOR272-1 [2, 5]: −4.251
- EC50 [4, 7]: 73.3 µM

- log EC50, MOR203-1 ([2]; 0 = no response): −5.064
- EC50 [3, 6]: 265 µM
- EC50 [4, 7]: 19.9 µM
SMILES: CCCCCCCC(C)=O [2-Noranone]

- log EC50, MOR203-1 ([2]; 0 = no response): −5.023
- log EC50, MOR272-1 [2, 5]: −4.575
- EC50 [3, 6]: 42.7 µM
- EC50 [4, 7]: 39.9 µM
SMILES: CCCCCCC(C)=O [2-Octanone]

- log EC50, MOR203-1 ([2]; 0 = no response): −4.099
- log EC50, MOR271-1 ([2]; 0 = no response): −5.235
- log EC50, MOR272-1 [2, 5]: −5.221
- EC50 [3, 6]: 19.4 µM
- EC50 [4, 7]: 33.3 µM
SMILES: CCCCC(=O)CC [3-Haptonone]

- log EC50 (Table 4 value), MOR203-1 [2]: −4.4
- log EC50 (Table 4 value), MOR271-1 [2]: −4.139
- log EC50 (Table 4 value), MOR272-1 ([2]; receptor MOR272-1): −4.197
- EC50 [3, 8]: 5.12 µM
- EC50 [4, 9]: 9.55 µM
SMILES: CCCCCC(=O)CC [3-Octanone]

SMILES: C=CCc1ccccc1 [Allyl benzene]
- pEC50 [1]: 4.15
- log EC50 (Table 4 value), MOR105-1 ([2]; receptor MOR105-1): −3.332
- log EC50 (Table 4 value), MOR106-1 ([2]; receptor MOR106-1): −3.921

- EC50 [3, 8]: 475 µM
SMILES: C=CCOC(=O)CCCCCC [Allyl heptanoate]

SMILES: O=C(c1ccccc1)c1ccccc1 [Benzophenone]
- log EC50 (Table 4 value), MOR162-1 ([2]; receptor MOR162-1): −3.685
- log EC50 (Table 4 value), MOR259-1 ([2]; receptor MOR259-1): −4.442
- log EC50 (Table 4 value), MOR269-1 ([2]; receptor MOR269-1): −3.652
- pEC50 [3]: 4.01
- pEC50 [4]: 4.54

- EC50 [4, 9]: 37.4 µM
SMILES: CCCCOC=O [Butyl formate]

- log EC50 (Table 4 value), MOR5-1 ([2]; receptor MOR5-1): −3.749
- log EC50 (Table 4 value), MOR25-1 ([2]; receptor MOR25-1): −4.194
- log EC50 (Table 4 value), MOR30-1 ([2]; receptor MOR30-1): −4.987
- log EC50 (Table 4 value), MOR33-1 ([2]; receptor MOR33-1): −4.487
- log EC50 (Table 4 value), MOR37-1 ([2]; receptor MOR37-1): −4.323
- log EC50 (Table 4 value), MOR40-1 ([2]; receptor MOR40-1): −4.121
- log EC50 (Table 4 value), MOR203-1 [2]: −3.751
- log EC50 (Table 4 value), MOR258-17 ([2]; receptor MOR258-17): −4.627
- log EC50 (Table 4 value), MOR260-1 ([2]; receptor MOR260-1): −3.542
- EC50 [4, 9]: 175 µM
SMILES: CCCCCCCCCC(=O)O [Decanoic acid]

- log EC50 (Table 4 value), OR2W1 [4]: −4.056
SMILES: CCCCCCC=O [Heptonal]

SMILES: CCCCCCO [Hexanol]
- log EC50 (Table 4 value), MOR1-1 ([2]; receptor MOR1-1): −3.987
- log EC50 (Table 4 value), MOR4-1 ([2]; receptor MOR4-1): −3.231
- log EC50 (Table 4 value), MOR271-1 [2]: −3.322
- log EC50 (Table 4 value), OR2W1 [4]: −5.102

- EC50 [4, 10]: 13.7 µM
SMILES: CCCCCCOC(C)=O [Hexyl acetate]

SMILES: CCCCCCCCC=O [Nonanal]
- log EC50 of odorant at MOR30-1 (0 = no response) ([2]; receptor MOR30-1): −3.914
- log EC50 of odorant at MOR33-1 (0 = no response) ([2]; receptor MOR33-1): −3.234
- log EC50 of odorant at MOR37-1 (0 = no response) ([2]; receptor MOR37-1): −3.295
- log EC50 of odorant at MOR40-1 (0 = no response) ([2]; receptor MOR40-1): −3.194
- EC50 [4, 10]: 252 µM

- EC50 [4, 10]: 43.6 µM
SMILES: CCCCCCCC=O [Octanal]

Reference: patent US20100248390A1, “COMPOSITIONS AND METHODS FOR IDENTIFYING LIGANDS OF ODORANT RECEPTORS” (DUKE UNIVERSITY, priority 2009, published 2010)
